Test results as given in PMC9329436, “Optimization of the 4-anilinoquin(az)oline scaffold as epidermal growth factor receptor (EGFR) inhibitors for chordoma utilizing a toxicology profiling assay platform” (Scientific Reports, 2022).
Like-named read-outs stand apart in the source and are kept apart here.

Experiments:
Assay type in all cases: biochemical
[1] = target: 320 wild-type protein kinases (Homo sapiens, UniProt P05129); conditions: PKC-gamma, singlicate
Description: (§1) Table S4. Profiling of two compounds at two concentrations against 320 wild-type protein kinases; singlicate measurement; Residual activities (% of control).

[2] = target: T1, 320 wild-type protein kinases (Homo sapiens, UniProt Q99683); conditions: singlicate
T1 sequence (Q99683 1-1374): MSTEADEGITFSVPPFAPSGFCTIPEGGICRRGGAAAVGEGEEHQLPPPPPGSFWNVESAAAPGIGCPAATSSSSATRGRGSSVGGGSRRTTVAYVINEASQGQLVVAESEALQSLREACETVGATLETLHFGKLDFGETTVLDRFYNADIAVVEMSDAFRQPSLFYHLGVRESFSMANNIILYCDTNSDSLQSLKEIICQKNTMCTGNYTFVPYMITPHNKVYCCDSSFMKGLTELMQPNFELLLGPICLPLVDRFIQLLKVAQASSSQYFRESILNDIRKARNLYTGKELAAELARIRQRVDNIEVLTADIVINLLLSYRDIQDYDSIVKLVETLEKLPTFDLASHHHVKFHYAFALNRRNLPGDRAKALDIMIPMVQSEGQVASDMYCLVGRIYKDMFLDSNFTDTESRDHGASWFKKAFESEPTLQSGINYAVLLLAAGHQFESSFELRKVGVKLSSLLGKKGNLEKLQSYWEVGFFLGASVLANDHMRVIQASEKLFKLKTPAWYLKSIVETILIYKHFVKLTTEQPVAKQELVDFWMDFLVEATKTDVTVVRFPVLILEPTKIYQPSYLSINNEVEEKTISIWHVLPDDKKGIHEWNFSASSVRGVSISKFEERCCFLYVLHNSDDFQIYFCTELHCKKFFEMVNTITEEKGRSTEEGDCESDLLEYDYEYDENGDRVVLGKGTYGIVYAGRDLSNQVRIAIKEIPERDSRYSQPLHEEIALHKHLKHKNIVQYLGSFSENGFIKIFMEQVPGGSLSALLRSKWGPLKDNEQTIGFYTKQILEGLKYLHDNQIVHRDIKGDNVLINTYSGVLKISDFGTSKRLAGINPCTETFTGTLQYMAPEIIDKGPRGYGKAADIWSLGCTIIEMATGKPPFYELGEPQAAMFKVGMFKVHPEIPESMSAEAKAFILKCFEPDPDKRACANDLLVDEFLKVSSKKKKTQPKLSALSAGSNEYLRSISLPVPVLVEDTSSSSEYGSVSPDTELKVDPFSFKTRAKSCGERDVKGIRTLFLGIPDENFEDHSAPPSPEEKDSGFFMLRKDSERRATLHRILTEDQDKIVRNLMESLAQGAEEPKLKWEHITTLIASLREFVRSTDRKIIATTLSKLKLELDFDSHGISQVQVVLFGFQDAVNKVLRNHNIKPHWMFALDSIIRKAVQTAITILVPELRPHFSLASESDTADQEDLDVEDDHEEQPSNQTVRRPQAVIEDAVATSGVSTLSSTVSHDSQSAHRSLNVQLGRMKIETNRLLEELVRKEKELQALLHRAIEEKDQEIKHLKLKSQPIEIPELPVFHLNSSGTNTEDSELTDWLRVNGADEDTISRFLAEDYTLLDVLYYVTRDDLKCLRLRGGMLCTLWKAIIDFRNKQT
Description: as §1

[3] = target: T2, 320 wild-type protein kinases (Homo sapiens, UniProt P54762); conditions: singlicate
T2 sequence (P54762 18-984): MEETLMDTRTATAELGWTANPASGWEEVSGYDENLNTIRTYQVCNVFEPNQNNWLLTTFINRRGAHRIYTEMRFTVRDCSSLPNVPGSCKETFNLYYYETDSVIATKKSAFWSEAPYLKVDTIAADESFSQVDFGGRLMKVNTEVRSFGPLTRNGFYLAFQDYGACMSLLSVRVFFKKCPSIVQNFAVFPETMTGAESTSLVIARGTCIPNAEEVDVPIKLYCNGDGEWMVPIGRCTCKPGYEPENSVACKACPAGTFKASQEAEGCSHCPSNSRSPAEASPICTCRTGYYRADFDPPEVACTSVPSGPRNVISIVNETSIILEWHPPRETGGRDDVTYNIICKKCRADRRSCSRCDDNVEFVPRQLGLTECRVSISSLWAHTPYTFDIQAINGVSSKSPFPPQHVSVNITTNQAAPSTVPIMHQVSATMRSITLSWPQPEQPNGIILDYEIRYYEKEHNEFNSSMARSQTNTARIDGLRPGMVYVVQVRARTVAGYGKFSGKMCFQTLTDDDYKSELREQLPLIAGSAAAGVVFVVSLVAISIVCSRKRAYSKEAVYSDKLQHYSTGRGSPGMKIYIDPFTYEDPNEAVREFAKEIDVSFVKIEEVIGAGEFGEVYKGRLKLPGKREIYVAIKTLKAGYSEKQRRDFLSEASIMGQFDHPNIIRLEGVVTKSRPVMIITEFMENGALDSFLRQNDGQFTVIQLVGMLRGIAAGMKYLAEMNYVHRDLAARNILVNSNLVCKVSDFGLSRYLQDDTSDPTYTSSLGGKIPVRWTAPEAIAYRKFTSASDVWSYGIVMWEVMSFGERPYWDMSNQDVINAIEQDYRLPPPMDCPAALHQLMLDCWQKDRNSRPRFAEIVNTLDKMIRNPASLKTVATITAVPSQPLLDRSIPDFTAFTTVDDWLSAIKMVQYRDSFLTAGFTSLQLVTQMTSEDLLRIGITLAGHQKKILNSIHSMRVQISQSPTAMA
Description: as §1

[4] = target: T3, 320 wild-type protein kinases (Homo sapiens, UniProt Q13188); conditions: singlicate
T3 sequence (Q13188 1-491): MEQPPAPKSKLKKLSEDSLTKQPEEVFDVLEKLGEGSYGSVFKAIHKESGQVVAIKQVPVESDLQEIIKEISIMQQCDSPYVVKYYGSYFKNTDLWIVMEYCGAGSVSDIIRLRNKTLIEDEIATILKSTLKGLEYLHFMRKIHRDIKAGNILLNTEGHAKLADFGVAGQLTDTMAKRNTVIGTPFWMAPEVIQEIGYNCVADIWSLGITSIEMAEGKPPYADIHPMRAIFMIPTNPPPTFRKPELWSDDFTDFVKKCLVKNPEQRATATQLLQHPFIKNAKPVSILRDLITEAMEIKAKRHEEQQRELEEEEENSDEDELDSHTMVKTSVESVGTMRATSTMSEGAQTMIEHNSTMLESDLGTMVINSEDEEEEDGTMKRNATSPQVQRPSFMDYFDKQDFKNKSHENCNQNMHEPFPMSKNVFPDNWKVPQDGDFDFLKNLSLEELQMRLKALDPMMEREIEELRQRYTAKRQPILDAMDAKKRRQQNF
Description: as §1

| Structure (SMILES) | Residual activity ([1]; 1.0E-06 M) | Residual activity ([1]; 1.0E-07 M) | Residual activity ([2]; ASK1, 1.0E-06 M) | Residual activity ([2]; ASK1, 1.0E-07 M) | Residual activity ([3]; EPHB1, 1.0E-06 M) | Residual activity ([3]; EPHB1, 1.0E-07 M) | Residual activity ([4]; MST2, 1.0E-06 M) | Residual activity ([4]; MST2, 1.0E-07 M) |
| --- | --- | --- | --- | --- | --- | --- | --- | --- |
| C#Cc1cc(Nc2ncnc3cc(I)ccc23)ccc1Cl [Compound 41] | 89 % of control | 99 % of control | 99 % of control | 95 % of control | 87 % of control | 103 % of control | 102 % of control | 113 % of control |
| C#Cc1cc(Nc2ncnc3cc(OC)c(OC)cc23)ccc1Cl [Compound 45] | 88 % of control | 87 % of control | 99 % of control | 93 % of control | 82 % of control | 86 % of control | 102 % of control | 103 % of control |
